{
  "source": "patent US20230322815A1",
  "about": "“NOVEL COMPOUNDS AND THERAPEUTIC USES THEREOF” (University of Huddersfield, priority 2020, published 2023)",
  "key": {"[1]": {"test_system": "HCT116 p53^−/− cancer cells", "experiment": "Autophagy (CYTO-ID staining, confocal)", "format": "cell-based, human", "settings": "3.125 μM, 40 h", "protocol": "FIG. 17. The effects of [L2Cu3]^6+, [L2Zn3]^6+ and [L2Mn3]^6+ on cellular vacuole formation and autophagy in the HCT116 p53^−/− cancer cells. Representative confocal images are shown of HCT116 p53^−/− cancer cells following 40 h treatment with vehicle control or 3.125 μM [L2Cu3]^6+, [L2Zn3]^6+, or [L2Mn3]^6+.\nAutophagy studies: The effects of 3.125 μM [L2Cu3]^6+, [L2Zn3]^6+ and [L2Mn3]^6+ treatments (40 h) on the induction of cellular vacuoles and autophagy in the HCT116 p53^−/−, HCT116 p53^+/+ and ARPE19 cells are presented in FIGS. 17-19 with representative cell images shown. […] In the ARPE19 cells, levels of autophagy were low with all treatments and similar to basal levels in control-treated cells (FIG. 19)."}, "[2]": {"experiment": "Phosphatase activity: hydrolysis of 4-nitrophenyl phosphate", "settings": "following mixing", "text": "Only [L2Zn3(PO4)]^3+ was observed, coupled with a rapid yellowing of the solution due to the formation of 4-nitrophenolate.\nThe rate of substrate hydrolysis is also dependent upon the metal used in the self-assembly process."}, "[3]": {"test_system": "HCT116 p53^−/−", "experiment": "Chemosensitivity (MTT, 96 h continuous exposure)", "format": "cell-based, human", "protocol": "FIG. 7. Chemosensitivity response of a panel of human cancer and non-cancer cell lines to 96 h continuous exposure to self-assembling test compounds. a, The potency of compounds tested against cancer (HT-29, DLD-1, HCT116 p53^+/+ and […], PSN1, MiaPaCa2, BxPC3, A549, H460 and GBM1) and non-cancer cells (ARPE-19, MCF10A and NP1). Each value represents the mean IC50±standard deviation from a minimum of three independent experiments. b,c, The selectivity index (SI) for [L2Cu3]^6+ (b) and [L2Zn3]^6+ (c) for the indicated cancer cell lines; SI is defined as the mean IC50 against the particular non-cancer cell line model divided by the mean IC50 against the particular cancer cell line. […] As the SI value is calculated using the mean IC50 values, experimental error is not included in these figures. d,e, IC50 values for the clinically approved platinates (cisplatin, oxaliplatin and carboplatin) and [L2Mn3]^6+ and the corresponding SI results.\nAll cell lines used were maintained at low passage in antibiotic-free media and were obtained from ATCC (LGC Standards, Middlesex, UK) unless otherwise stated (Methods). HT29, DLD-1, HCT116 p53^+/+ and HCT116 p53^−/− are all colorectal adenocarcinoma cell lines derived from different individuals and harbor different combinations of oncogenic lesions (except for the HCT116 isogenic cancer cell clones that are genetically identical except for p53 status). PSN-1, BxPC-3 and MiaPaCa2 are pancreatic carcinoma cell lines and A549 and H460 are lung carcinoma cell lines. HT29, DLD-1, PSN-1, BxPC-3, A549 and H460 cell lines were cultured in RPMI-1640 growth media (Sigma) containing 2 mM L-glutamine, 1 mM sodium pyruvate and 10% fetal bovine serum (FBS). HCT116 (p53^+/+ and p53^−/−) and MiaPaCa2 cell lines were cultured in Dulbecco's Modified Eagle's Medium (Sigma), 2 mM L-glutamine and 10% FBS. The ARPE-19 retinal epithelial non-cancer cell line (Dunn et al., 1996) was cultured in DMEM/F12 media (Gibco), 2 mM L-glutamine, 1 mM sodium pyruvate and 10% FBS. The MCF10A non-cancerous human breast epithelial cell line was cultured in Minimal Essential Media Eagle (Sigma), 2 mM L-glutamine, 1 mM sodium pyruvate, 10% FBS and 1×non-essential amino acids (NEAA). NP1 and GBM1 cells were cultured on plasticware coated with poly-L-ornithine (5 μg/ml) and laminin (2.4 μg/ml) (Polson et al., 2018; Da Silva et al., 2019). […]\n[L2M3]^6+ and all the other self-assembling complexes were freshly formed by adding DMSO to individual components mixing together by pipetting. […] Media and MTT were removed and formazan crystals were dissolved in 150 μl of DMSO and the absorbance of the resulting solution determined at 540 nm. […]"}, "[4]": {"test_system": "ARPE19 non-cancer cells", "experiment": "Cellular ATP levels", "format": "cell-based, human", "settings": "100 μM, 20 h", "protocol": "FIG. 20. The effects of [L2Cu3]^6+, [L2Zn3]^6+ and [L2Mn3]^6+ on cellular ATP levels in the ARPE19 non-cancer and HCT116 p53^+/+ cancer cells. The effects of 20 h treatment with the indicated concentrations of [L2Cu3]^6+, [L2Zn3]^6+, or [L2Mn3]^6+ on total cellular levels of ATP compared to levels in vehicle control-treated ARPE19 or HCT116^+/+ cells. n=3 biological repeats, students t-test (p values).\nCellular ATP studies: The effects of 20 h treatment with a range of different concentrations of [L2Cu3]^6+, [L2Zn3]^6+ and [L2Mn3]^6+ on total cellular ATP levels in HCT116 p53^+/+ and ARPE19 cells are presented in FIG. 20. Differential effects are observed depending on the metal in the complex, with [L2Mn3]^6+ having the most profound effects on both the HCT116 p53^+/+ cancer and ARPE19 non-cancer cells. 6.25 μM [L2Mn3]^6+ treatment for 20 h reduced ATP levels in the HCT116 p53^+/+ cancer cells to <50% with ATP levels declining less in the ARPE19 non-cancer cells but reaching ˜40% with 100 μM [L2Mn3]^6+ treatment. […] Effects of [L2Cu3]^6+ on ATP levels was much less, with ATP levels in the HCT116 cells reduced to <50% only at the highest concentration of 100 μM."}},
  "data": [
    {"compound": "[Cu+2].[Cu+2].[Cu+2].c1ccc(-c2csc(NCCN(CCNc3nc(-c4ccccn4)cs3)CCNc3nc(-c4ccccn4)cs3)n2)nc1.c1ccc(-c2csc(NCCN(CCNc3nc(-c4ccccn4)cs3)CCNc3nc(-c4ccccn4)cs3)n2)nc1", "note": "[[L2Cu3]^6+]", "values": [
      {"measurement": "induction of autophagy", "setting": "[1]", "result": "no or little autophagy"}
    ]},
    {"compound": "[Zn+2].[Zn+2].[Zn+2].c1ccc(-c2csc(NCCN(CCNc3nc(-c4ccccn4)cs3)CCNc3nc(-c4ccccn4)cs3)n2)nc1.c1ccc(-c2csc(NCCN(CCNc3nc(-c4ccccn4)cs3)CCNc3nc(-c4ccccn4)cs3)n2)nc1", "note": "[[L2Zn3]^6+]", "values": [
      {"measurement": "hydrolysis of 4-nitrophenyl phosphate by 31P NMR", "setting": "[2]", "result": "almost immediate hydrolysis"},
      {"measurement": "selectivity index (IC50 non-cancer cells / IC50 cancer cells)", "setting": "[3]; HCT116 p53^−/− compared to ARPE-19", "result": "over 2000"},
      {"measurement": "selectivity index (IC50 non-cancer cells / IC50 cancer cells)", "setting": "[3]; HCT116 p53^−/− compared to MCF10A", "result": "over 2000"},
      {"measurement": "IC50", "setting": "[3]; HCT116 p53^−/−, 96 h, MTT", "result": "70 ± 13", "unit": "nM"},
      {"measurement": "fold more active towards HCT116 p53^−/− than HCT116 p53^+/+", "setting": "[3]; based on 96 h IC50 values", "result": "~6", "unit": "fold"},
      {"measurement": "ATP levels compared to vehicle control", "setting": "[4]", "result": "> 70", "unit": "%"}
    ]}
  ]
}
